Values quoted from earlier work as cited in patent publication EP4778943A1, “LONG-ACTING PARATHYROID HORMONE RECEPTOR AGONIST FUSION PROTEIN AND USE THEREOF” (Shanghai Btd-Bio Technology Co., Ltd., priority 2023, dated 2025).
Where no end group is shown, it is not given here.

How the values were obtained:
[1] = test system: TPTx (parathyroidectomy) rat model; settings: daily 1.2 nmol/kg (low dose) and 2.4 nmol/kg (high dose), after 4 weeks, versus model group; cited from earlier work
mice = settings: continuous infusion 80 µg/kg BW/day for 2 weeks; cited from earlier work
[2] = continuous administration once a day for 6 months; cited from earlier work

| Molecule | bone mineral density [1] | bone mineral density (mice) | bone mineral density of L2-L4, increase [2] |
| --- | --- | --- | --- |
| TransCon PTH: long-acting PTH, generic name palopegteriparatide, trade name Yorvipath (SVSEIQLMHNLGKHLNSMERVEWLRKKLQDVHNF; also: PEG carrier attached via prodrug linker, site not given here; UniProt P01270 32-65, looked up, fragment) | significantly decreased | – | – |
| Abaloparatide | – | significant decrease | – |
| CC[C@H](C)[C@H](NC(=O)[C@H](CCC(=O)O)NC(=O)[C@H](CO)NC(=O)[C@@H](NC(=O)[C@@H](N)CO)C(C)C)C(=O)N[C@@H](CCC(N)=O)C(=O)N[C@@H](CC(C)C)C(=O)N[C@@H](CCSC)C(=O)N[C@@H](Cc1c[nH]cn1)C(=O)N[C@@H](CC(N)=O)C(=O)N[C@@H](CC(C)C)C(=O)NCC(=O)N[C@@H](CCCCN)C(=O)N[C@@H](Cc1c[nH]cn1)C(=O)N[C@@H](CC(C)C)C(=O)N[C@@H](CC(N)=O)C(=O)N[C@@H](CO)C(=O)N[C@@H](CCSC)C(=O)N[C@@H](CCC(=O)O)C(=O)N[C@@H](CCCNC(=N)N)C(=O)N[C@H](C(=O)N[C@@H](CCC(=O)O)C(=O)N[C@@H](Cc1c[nH]c2ccccc12)C(=O)N[C@@H](CC(C)C)C(=O)N[C@@H](CCCNC(=N)N)C(=O)N[C@@H](CCCCN)C(=O)N[C@@H](CCCCN)C(=O)N[C@@H](CC(C)C)C(=O)N[C@@H](CCC(N)=O)C(=O)N[C@@H](CC(=O)O)C(=O)N[C@H](C(=O)N[C@@H](Cc1c[nH]cn1)C(=O)N[C@@H](CC(N)=O)C(=O)N[C@@H](Cc1ccccc1)C(=O)O)C(C)C)C(C)C [teriparatide] | – | significant decrease | about 5% |
